Data reported in PubChem BioAssay (NCI).
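Step 1: Grow cells in 96-well plates. Step 2: Expose to compound for 48 hours at 5 concentrations. Step 3: Interpolate endpoints linearly; if unreached, use highest concentration. Here, GI50 denotes the concentration required for 50% inhibition of growth. TGI: total growth inhibition.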

What was measured:
Assay in all cases: NCI-60 cell line screen, 48 h
NCI-H460 lung = test system: NCI-H460 lung
NCI-H522 lung = test system: NCI-H522 lung
MDA-MB-468 breast = test system: MDA-MB-468 breast
NCI-H226 lung = test system: NCI-H226 lung
OVCAR-5 ovarian = test system: OVCAR-5 ovarian
SF-268 CNS = test system: SF-268 CNS
IGROV1 ovarian = test system: IGROV1 ovarian
PC-3 prostate = test system: PC-3 prostate
DU-145 prostate = test system: DU-145 prostate
786-0 renal = test system: 786-0 renal
A549 NSCLC = test system: A549 NSCLC
CCRF-CEM leukemia = test system: CCRF-CEM leukemia
SF-539 CNS = test system: SF-539 CNS
A498 renal = test system: A498 renal
HT29 colon = test system: HT29 colon
MOLT-4 leukemia = test system: MOLT-4 leukemia
EKVX NSCLC = test system: EKVX NSCLC
HCC-2998 colon = test system: HCC-2998 colon
CAKI-1 renal = test system: CAKI-1 renal
SN12C renal = test system: SN12C renal
HOP-62 NSCLC = test system: HOP-62 NSCLC
UACC-257 melanoma = test system: UACC-257 melanoma
UO-31 renal = test system: UO-31 renal
HS 578T breast = test system: HS 578T breast
M14 melanoma = test system: M14 melanoma
MDA-MB-435 = test system: MDA-MB-435
K-562 leukemia = test system: K-562 leukemia
SNB-75 CNS = test system: SNB-75 CNS
SF-295 CNS = test system: SF-295 CNS

Clc1ccc2c(NCCNC34CC5CC(CC(C5)C3)C4)ccnc2c1 gave a GI50 (NCI-H460 lung) of 3.31 µM, a TGI (NCI-H460 lung) of 6.61 µM and a GI50 (NCI-H522 lung) of 2.9 µM. The TGI (NCI-H522 lung) was 6.34 µM, the GI50 (MDA-MB-468 breast) was 0.435 µM and the TGI (MDA-MB-468 breast) was 1.21 µM. It also gave a GI50 (NCI-H226 lung) of 3.04 µM, a TGI (NCI-H226 lung) of 6.5 µM and a GI50 (OVCAR-5 ovarian) of 2.9 µM. For the same molecule, the TGI (OVCAR-5 ovarian) was 6.05 µM, the GI50 (SF-268 CNS) was 3.03 µM and the TGI (SF-268 CNS) was 6.14 µM. For the same molecule, the GI50 (IGROV1 ovarian) was 3.37 µM, the TGI (IGROV1 ovarian) was 6.65 µM and the GI50 (PC-3 prostate) was 3.1 µM. For the same molecule, the TGI (PC-3 prostate) was 7.77 µM, the GI50 (DU-145 prostate) was 3.57 µM and the TGI (DU-145 prostate) was 6.72 µM. For the same molecule, the GI50 (786-0 renal) was 2.41 µM, the TGI (786-0 renal) was 5.57 µM and the GI50 (A549 NSCLC) was 3.19 µM. It also gave a TGI (A549 NSCLC) of 7.18 µM, a GI50 (CCRF-CEM leukemia) of 5 µM and a TGI (CCRF-CEM leukemia) of 12.9 µM. It also gave a GI50 (SF-539 CNS) of 0.533 µM, a TGI (SF-539 CNS) of 1.21 µM and a GI50 (A498 renal) of 3.09 µM. The TGI (A498 renal) was 6.1 µM, the GI50 (HT29 colon) was 0.675 µM and the TGI (HT29 colon) was 2.71 µM. The GI50 (MOLT-4 leukemia) was 3.63 µM, the TGI (MOLT-4 leukemia) was 10.2 µM and the GI50 (EKVX NSCLC) was 3.53 µM. For the same molecule, the TGI (EKVX NSCLC) was 7.16 µM, the GI50 (HCC-2998 colon) was 0.889 µM and the TGI (HCC-2998 colon) was 3.32 µM. It also gave a GI50 (CAKI-1 renal) of 2.82 µM, a TGI (CAKI-1 renal) of 5.76 µM and a GI50 (SN12C renal) of 3.24 µM. It also gave a TGI (SN12C renal) of 6.34 µM, a GI50 (HOP-62 NSCLC) of 3.7 µM and a TGI (HOP-62 NSCLC) of 7.41 µM. It also gave a GI50 (UACC-257 melanoma) of 3.24 µM, a TGI (UACC-257 melanoma) of 6.62 µM and a GI50 (UO-31 renal) of 2.57 µM. For the same molecule, the TGI (UO-31 renal) was 5.38 µM, the GI50 (HS 578T breast) was 2.64 µM and the TGI (HS 578T breast) was 6.51 µM. It also gave a GI50 (M14 melanoma) of 0.43 µM, a TGI (M14 melanoma) of 0.837 µM and a GI50 (MDA-MB-435) of 0.566 µM. For the same molecule, the TGI (MDA-MB-435) was 1.6 µM, the GI50 (K-562 leukemia) was 0.756 µM and the TGI (K-562 leukemia) was 4.57 µM. For the same molecule, the GI50 (SNB-75 CNS) was 3.15 µM, the TGI (SNB-75 CNS) was 6.97 µM and the GI50 (SF-295 CNS) was 3.47 µM. It also gave a TGI (SF-295 CNS) of 6.67 µM.
